Like-named read-outs stand apart in the source and are kept apart here.
Assays:
[1] = Stability of target compounds in phosphate-buffered saline (pH 6.5 and pH 7.4), HPLC; format: physicochemical; conditions: PBS pH 6.5 and 7.4, mouse and rat plasma (Figure S1)
Experimental: (§1) The stability of the target compounds was tested first, and excellent stability was essential for physiological function evaluation. Phosphate-buffered saline (PBS) of different pH values was used to evaluate the stability of the target compounds in a weakly acidic tumor microenvironment (pH 6.5) versus a weakly alkaline normal physiological environment (pH 7.4). […] The stability of the target compounds in mouse and rat plasma was excellent. The concentrations of all target compounds remained at >80% of the initial concentrations after 24 h, with the concentrations of compounds 1c, 2c, and 3c being 89%, 88%, and 83% in mouse plasma and 86%, 84%, and 81% in rat plasma, respectively (Figure 3c,d).
(§2) PBS (pH 7.4) was made with 137 mM NaCl, 2.7 mM KCl, 10 mM Na2HPO4, and 1.8 mM KH2PO4, while PBS (pH 6.5) was made with 24.6 mM Na2HPO4 and 175.4 mM NaH2PO4. The target compounds were dissolved into the different buffers (50 μM; 1% DMSO), and the mixtures were incubated at 37 °C. A 100-μL sample was transferred to a vial for HPLC analysis at 1, 2, 4, 8, 12, and 24 h. C57BL/6 mice and SD rat orbital whole blood was collected into anticoagulation tubes and centrifuged at 4000× g for 5 min at 4 °C to obtain plasma. The target compounds were dissolved into the plasma (50 μM; 1% DMSO) and incubated at 37 °C. Each sample (100 μL) was collected and precipitated using 100 μL of acetonitrile. The mixture was vortexed for 5 min and centrifuged at 10,000× g for 10 min. The supernatant was transferred to a vial for HPLC analysis after 1, 2, 4, 8, 12, and 24 h.

[2] = system: MCF-7 human breast cancer cells; experiment: In vitro cytotoxicity (MTT assay) in MCF-7 cells with or without NTR; format: cell-based; conditions: for IC50: Homo sapiens, MCF7, MCF-7, 24 h, MTT; for IC50 (NTR-Free)/ IC50 (NTR): MCF-7, selectivity ratio
Experimental: (§3) The cytotoxicity of the target compounds 1c–6c were evaluated in MCF-7 human breast cancer cells and HT29 human colon cancer cells. These two cell lines were chosen because 5′-DFUR is currently used to treat breast and gastrointestinal tumors. The cells were incubated with the target compounds at various concentrations for 24 h in the presence or absence of NTR. The cell viability and proliferation behavior were assessed by 3-(4,5-dimethylthiazol-2-yl)-2,5-diphenyltetrazolium (MTT) assay. The half-maximal inhibitory concentration values of the tested compounds for inhibiting cell proliferation are shown in Table 1.
(§4) MCF-7 human breast cancer cells or HT29 human colon cancer cells purchased from the National Collection of Authenticated Cell Cultures were cultured in RPMI 1640 medium, and McCoy’s 5A medium supplemented with 10% fetal bovine serum and 1% penicillin-streptomycin in a humidified 5% CO2 incubator at 37 °C. Cells in the logarithmic growth phase were inoculated into 96-well plates at a density of 1.0 × 10^4 cells per well and cultured for 24 h. The target compounds were dissolved in DMSO and diluted in medium to different concentrations. The cells were then incubated with different concentrations of the target compound for 24 h. The cells in the NTR treatment group were incubated with various concentrations of compounds, NTR (final concentration, 50 µg/mL) and NADH (final concentration, 2 mM) for 24 h. Cell viability and proliferation were measured by MTT assay. Cell viability was calculated according to the following formula: cell viability (%) = (OD value of treatment group–OD value of blank group)/(OD value of control group–OD value of blank group) × 100. The half-maximal inhibitory concentration values were calculated from concentration-response curves using GraphPad PRISM (version 5.0, GraphPad, San Diego, CA, USA).

[3] = system: HT29 human colon cancer cells; experiment: In vitro cytotoxicity (MTT assay) in HT29 cells with or without NTR; format: cell-based; conditions: for IC50 (NTR-Free)/ IC50 (NTR): HT29, selectivity ratio; for IC50: Homo sapiens, HT-29, HT29, 24 h, MTT
Experimental: as §3, §4

[4] = biological target: T1, NTR extracted from Escherichia coli (Escherichia coli, UniProt P38489); experiment: In vitro release evaluation: incubation with NTR and NADH, HPLC of derivative and released 5′-DFUR; format: biochemical; conditions: for concentration remaining under NTR conditions after 12 h / time after which compound was completely degraded by NTR / 5′-DFUR released: NTR 50 µg/mL, NADH 2 mM, PBS pH 7.4, 37 °C; for time after which compound was completely degraded by NTR / 5′-DFUR released: 50 µM compound; for 5′-DFUR released: at complete degradation
T1 construct: host or cells: Escherichia coli
Experimental: (§5) NTR levels are reportedly much higher in hypoxic tumors than in normal tissues. To investigate the mechanism of activation of the derivatives and the amount of 5′-DFUR released, we treated the target compounds with NTR extracted from Escherichia coli to determine whether they provided the desired active agent as expected. The test compounds (50 µM, 1% dimethyl sulfoxide [DMSO]) were dissolved in PBS buffer at pH 7.4 and incubated with NTR (50 µg/mL) and NADH (2 mM) at 37 °C, and the concentrations of the derivatives and 5′-DFUR during the bioreduction were detected by high-performance liquid chromatography (HPLC). The designed target compounds 1c–3c could be metabolized to form 5′-DFUR in the presence of NTR, while the nitro-free compounds 4c–6c could not be metabolized to form 5′-DFUR. […] The metabolic rate of compound 2c was the highest, with a half-life of 0.6 h. It was completely degraded after 4 h, and 69.6% of 5′-DFUR was released. […] During the experiment, other metabolites, such as hydroxylamine derivatives and amino derivatives generated by reducing the nitro group were also detected. […] Compounds 4c, 5c and 6c, without nitro groups, remained well-stabilized under NTR conditions, with concentrations > 90% after 12 h.
(§6) The target compounds NTR and NADH were dissolved in 10 mM PBS (pH 7.4; 1% DMSO). The final concentrations of the target compounds NTR and NADH in the mixtures were 50 μM, 50 μg/mL, and 2 mM, respectively. The mixture were incubated at 37 °C. The sample (100 μL) was collected and quenched by 100 µL of cold methanol. The mixture was vortexed for 5 min and centrifuged at 10,000× g for 10 min. The supernatant was transferred to a vial for HPLC analysis at 0.25, 0.5, 1, 2, 4, 8, and 12 h.

HT29 colon cancer cells = experiment: In vivo antitumor activity in HT29 tumor-bearing mice; conditions: for tumor growth inhibition (TGI) rate: 50 mg/kg intraperitoneally every 2 days for 4 weeks, HT29 tumor-bearing C57BL/6 mice
Experimental: Compound 2c, which has excellent stability, a high metabolic rate, and strong cytotoxicity under NTR conditions in vitro, was selected for the in vivo evaluation of antitumor activity in tumor-bearing mice. Tumor-bearing mice were generated by the axillary injection of HT29 colon cancer cells into C57BL/6 mice. When the tumors grew to approximately 100–150 mm^3, the mice were randomly divided into negative control (vehicle), compound 2c (50 mg/kg), and positive control 5′-DFUR (50 mg/kg) groups (n = 6 each). The mice were injected intraperitoneally every 2 days for 4 weeks, and the tumor volume and body weight of the mice were measured every 2 days. No death occurred in any group of mice during the experimental period.
Four-week-old C57BL/6 mice were purchased from Jinan Pengyue Experimental Animal Breeding Co. Ltd. (Jinan, China). The mice were housed in cages under a 12-h light/dark cycle from 7:00 to 19:00 at controlled temperatures (25–26 °C) and relative humidity (50 ± 10%) throughout the experimental period. All animals were allowed to eat and drink freely unless otherwise stated and allowed to acclimate for 1 week before the experiment. All animal experimental protocols were performed in accordance with applicable institutional and governmental regulations concerning the ethical use of animals (AP2024022954).
The tumor-bearing mice model was established by the subcutaneous injection of HT29 cells (1 × 10^7 cells/mL) purchased from the National Collection of Authenticated Cell Cultures to the right axilla of C57BL/6 mice (100 µL/mouse). When the tumor size reached 100–150 mm^3, the mice were evenly divided into negative control (vehicle), group 2c (50 mg/kg), and 5′-DFUR (50 mg/kg) groups (n = 6 each). Compound 2c and 5′-DFUR were dissolved in a solution containing 10% ethanol, 10% castor oil, and 80% saline that also served as the negative control. The mice were injected intraperitoneally every 2 days for 4 weeks, and the tumor volumes and body weights of the mice were measured every 2 days. Tumor volume was calculated using the following formula: tumor volume = length (mm) × width (mm) × width (mm) × 0.5. The TGI rate was determined as follows: TGI = 1 − (treatment final volume − treatment initial volume)/(control final volume − control initial volume) × 100%.

[5] = Stability of target compounds in mouse plasma, HPLC; format: in vitro ADME, C57BL/6 mice; conditions: 50 μM, 37 °C
Experimental: as §1, §2

NTR = biological target: T2, NTR (Escherichia coli, UniProt P38489); experiment: In vitro release evaluation: incubation with NTR and NADH, HPLC of derivative and released 5′-DFUR; format: biochemical; conditions: Escherichia coli; 50 µM compound, NTR 50 µg/mL, NADH 2 mM, PBS pH 7.4, 37 °C; read-out: half-life in the presence of NTR (converted)
T2 construct: host or cells: Escherichia coli
Experimental: as §5, §6

[6] = Stability of target compounds in rat plasma, HPLC; format: in vitro ADME, SD rat; conditions: 50 μM, 37 °C
Experimental: as §1, §2

[7] = medium with NTR and NADH 2 mM, read-out: IC50 NTR
[8] = medium without NTR, read-out: IC50 NTR-Free

T1 sequence (P38489 whole entry): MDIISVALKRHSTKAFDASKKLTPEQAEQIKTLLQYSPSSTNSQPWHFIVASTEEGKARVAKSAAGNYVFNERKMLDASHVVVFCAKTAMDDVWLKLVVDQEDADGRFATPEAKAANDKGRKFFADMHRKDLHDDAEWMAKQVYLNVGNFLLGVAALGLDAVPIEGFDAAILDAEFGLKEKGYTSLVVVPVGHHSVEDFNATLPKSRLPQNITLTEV
T2 sequence (P38489 whole entry): as above

Compound	stability in PBS at different pH values and plasma (in words) [1]	IC50 [2, 7] [µM]	IC50 [2, 8] [µM]	IC50 (NTR-Free)/ IC50 (NTR) [2]	IC50 (NTR-Free)/ IC50 (NTR) [3]	IC50 [3, 7] [µM]	IC50 [3, 8] [µM]	concentration remaining under NTR conditions after 12 h [4] [%]	tumor growth inhibition (TGI) rate (HT29 colon cancer cells) [%]	concentration relative to initial concentration after 24 h in mouse plasma [5] [%]	half-life at 50 µM (NTR) [h]	time after which compound was completely degraded by NTR [4] [h]	5′-DFUR released [4] [%]	amount of 5′-DFUR released (AUC0–12h of relative amount), comparison in words ([4]; versus 1c and 3c, Figure 4d)	drug-related toxic reactions (in words) (HT29 colon cancer cells; 50 mg/kg i.p. every 2 days for 4 weeks)	body weight of mice (in words) (HT29 colon cancer cells; 50 mg/kg i.p. every 2 days for 4 weeks, versus positive control 5′-DFUR group)	concentration relative to initial concentration after 24 h in rat plasma [6] [%]
C[C@H]1O[C@@H](n2cc(F)c(=O)n(Cc3cccs3)c2=O)[C@H](O)[C@@H]1O [Compound 6c]	similarly stable	473	468	0.99	1.02	465	474	> 90									
C[C@H]1O[C@@H](n2cc(F)c(=O)[nH]c2=O)[C@H](O)[C@@H]1O [5′-DFUR, 5′-deoxy-5-fluorouridine, reference compound]		86.7	83.6	0.96	1.05	48.1	50.4		83.0								
C[C@H]1O[C@@H](n2cc(F)c(=O)n(Cc3ccco3)c2=O)[C@H](O)[C@@H]1O [Compound 5c]	similarly stable	423	412	0.97	1.09	422	459	> 90									
C[C@H]1O[C@@H](n2cc(F)c(=O)n(Cc3ccc([N+](=O)[O-])o3)c2=O)[C@H](O)[C@@H]1O [Compound 2c]		80.3	400	4.99	7.62	57.4	437		77.5	88	0.6	4	69.6	significantly higher	No significant drug-related toxic reactions were observed	smaller weight fluctuations and were slightly higher than those of the positive control group	84
C[C@H]1O[C@@H](n2cc(F)c(=O)n(Cc3ccc([N+](=O)[O-])cc3)c2=O)[C@H](O)[C@@H]1O [Compound 1c]		106	470	4.42	7.39	79	584			89	1.3	12	45.1				86
C[C@H]1O[C@@H](n2cc(F)c(=O)n(Cc3ccccc3)c2=O)[C@H](O)[C@@H]1O [Compound 4c]	similarly stable	537	495	0.92	1.01	614	621	> 90									
C[C@H]1O[C@@H](n2cc(F)c(=O)n(Cc3ccc([N+](=O)[O-])s3)c2=O)[C@H](O)[C@@H]1O [Compound 3c]		96.4	435	4.52	7.22	63.3	457			83	1	8	55.6				81
